# Test results: ChEMBL document CHEMBL1201862, “PubChem BioAssay data set” (2004)
#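 Each compound was tested at five concentrations against cells in 96-well plates for 48 hours. The concentration for 50% growth inhibition is given as GI50.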 Activity calls are given as the source filed them. Cut-off read from the data, not from the text of the source: active = GI50 up to about 1.1 µM and inactive = higher.
# How the values were obtained:
# Test in all cases: DTP human tumour cell line panel, 48 h
# NCI-H460 = system: NCI-H460
# OVCAR-5 = system: OVCAR-5
# NCI/ADR-RES = system: NCI/ADR-RES
# UACC-257 = system: UACC-257
# MDA-N = system: MDA-N
# Malme-3M = system: Malme-3M
# HOP-62 = system: HOP-62
# SNB-19 = system: SNB-19
# HCC 2998 = system: HCC 2998
# SR = system: SR
# HT-29 = system: HT-29
# SN12C = system: SN12C
# UO-31 = system: UO-31
# LOX IMVI = system: LOX IMVI
# OVCAR-8 = system: OVCAR-8
# RXF 393 = system: RXF 393
# SF-539 = system: SF-539
# HCT-15 = system: HCT-15
# MDA-MB-231 = system: MDA-MB-231
# COLO 205 = system: COLO 205
# A549 = system: A549
# SW-620 = system: SW-620
# TK-10 = system: TK-10
# KM12 = system: KM12
# IGROV-1 = system: IGROV-1
# SK-MEL-5 = system: SK-MEL-5
# 786-0 = system: 786-0
# EKVX = system: EKVX
# Hs-578T = system: Hs-578T
# ACHN = system: ACHN
# UACC-62 = system: UACC-62
# NCI-H522 = system: NCI-H522
# CAKI-1 = system: CAKI-1
# SK-MEL-2 = system: SK-MEL-2
# HCT-116 = system: HCT-116
# MOLT-4 = system: MOLT-4
# BT-549 = system: BT-549
# SF-295 = system: SF-295
# NCI-H226 = system: NCI-H226
# M14 = system: M14
# MCF7 = system: MCF7
# CCRF-CEM = system: CCRF-CEM
# HOP-92 = system: HOP-92
# K562 = system: K562
# SNB-75 = system: SNB-75
# RPMI-8226 = system: RPMI-8226
# OVCAR-4 = system: OVCAR-4
# DU-145 = system: DU-145
# U-251 = system: U-251
# A498 = system: A498
# SK-MEL-28 = system: SK-MEL-28
# OVCAR-3 = system: OVCAR-3
# NCI-H23 = system: NCI-H23
# MDA-MB-435 = system: MDA-MB-435
# SF-268 = system: SF-268
# PC-3 = system: PC-3
# SK-OV-3 = system: SK-OV-3
# HL-60 = system: HL-60
smiles,measurement,setting,value
O=C1c2cc3ncsc3cc2C(=O)c2c(O)ccc(O)c21,GI50,NCI-H460,> 100 µM (inactive)
same,GI50,OVCAR-5,> 100 µM (inactive)
same,GI50,NCI/ADR-RES,> 100 µM (inactive)
same,GI50,UACC-257,> 100 µM (inactive)
same,GI50,MDA-N,> 100 µM (inactive)
same,GI50,Malme-3M,> 100 µM (inactive)
same,GI50,HOP-62,> 100 µM (inactive)
same,GI50,SNB-19,> 100 µM (inactive)
same,GI50,HCC 2998,> 100 µM (inactive)
same,GI50,SR,> 100 µM (inactive)
same,GI50,HT-29,> 100 µM (inactive)
same,GI50,SN12C,> 100 µM (inactive)
same,GI50,UO-31,> 100 µM (inactive)
same,GI50,LOX IMVI,> 100 µM (inactive)
same,GI50,OVCAR-8,> 100 µM (inactive)
same,GI50,RXF 393,> 100 µM (inactive)
same,GI50,SF-539,> 100 µM (inactive)
same,GI50,HCT-15,> 100 µM
same,GI50,MDA-MB-231,> 100 µM (inactive)
same,GI50,COLO 205,> 100 µM (inactive)
same,GI50,A549,> 100 µM (inactive)
same,GI50,SW-620,> 100 µM (inactive)
same,GI50,TK-10,> 100 µM (inactive)
same,GI50,KM12,> 100 µM (inactive)
same,GI50,IGROV-1,> 100 µM (inactive)
same,GI50,SK-MEL-5,> 100 µM (inactive)
same,GI50,786-0,> 100 µM (inactive)
same,GI50,EKVX,> 100 µM (inactive)
same,GI50,Hs-578T,> 100 µM (inactive)
same,GI50,ACHN,> 100 µM (inactive)
same,GI50,UACC-62,> 100 µM (inactive)
same,GI50,NCI-H522,> 100 µM (inactive)
same,GI50,CAKI-1,> 100 µM (inactive)
same,GI50,SK-MEL-2,> 100 µM (inactive)
same,GI50,HCT-116,> 100 µM (inactive)
same,GI50,MOLT-4,> 100 µM (inactive)
same,GI50,BT-549,> 100 µM (inactive)
same,GI50,SF-295,> 100 µM (inactive)
same,GI50,NCI-H226,> 100 µM (inactive)
same,GI50,M14,> 100 µM (inactive)
same,GI50,MCF7,> 100 µM (inactive)
same,GI50,CCRF-CEM,98.9 µM (inactive)
same,GI50,HOP-92,> 100 µM (inactive)
same,GI50,K562,> 100 µM (inactive)
same,GI50,SNB-75,> 100 µM (inactive)
same,GI50,RPMI-8226,> 100 µM (inactive)
same,GI50,OVCAR-4,> 100 µM (inactive)
same,GI50,DU-145,> 100 µM (inactive)
same,GI50,U-251,> 100 µM (inactive)
same,GI50,A498,> 100 µM (inactive)
same,GI50,SK-MEL-28,> 100 µM (inactive)
same,GI50,OVCAR-3,> 100 µM (inactive)
same,GI50,NCI-H23,> 100 µM (inactive)
same,GI50,MDA-MB-435,> 100 µM (inactive)
same,GI50,SF-268,> 100 µM (inactive)
same,GI50,PC-3,> 100 µM (inactive)
O=C(/C=C\c1ccc(-c2ccccc2)cc1)c1cccs1,GI50,NCI-H460,56.4 µM (inactive)
same,GI50,OVCAR-5,45.2 µM (inactive)
same,GI50,NCI/ADR-RES,26.7 µM (inactive)
same,GI50,UACC-257,> 100 µM (inactive)
same,GI50,MDA-N,7.89 µM (inactive)
same,GI50,HOP-62,25.3 µM (inactive)
same,GI50,SNB-19,> 59.2 µM (inactive)
same,GI50,HCC 2998,> 28.4 µM (inactive)
same,GI50,SR,2.7 µM (inactive)
same,GI50,HT-29,3.38 µM (inactive)
same,GI50,SN12C,7.45 µM (inactive)
same,GI50,UO-31,16.6 µM (inactive)
same,GI50,LOX IMVI,3.88 µM (inactive)
same,GI50,OVCAR-8,6.44 µM (inactive)
same,GI50,RXF 393,10.9 µM (inactive)
same,GI50,SF-539,7.18 µM (inactive)
same,GI50,HCT-15,7.74 µM
same,GI50,MDA-MB-231,48.5 µM (inactive)
same,GI50,COLO 205,> 39.2 µM (inactive)
same,GI50,A549,> 79.6 µM (inactive)
same,GI50,SW-620,5.41 µM (inactive)
same,GI50,TK-10,46.2 µM (inactive)
same,GI50,KM12,4.42 µM (inactive)
same,GI50,IGROV-1,29.4 µM (inactive)
same,GI50,SK-MEL-5,> 70 µM (inactive)
same,GI50,786-0,11.6 µM (inactive)
same,GI50,EKVX,53 µM (inactive)
same,GI50,Hs-578T,9.59 µM (inactive)
same,GI50,ACHN,32.3 µM (inactive)
same,GI50,UACC-62,16.4 µM (inactive)
same,GI50,NCI-H522,3.87 µM (inactive)
same,GI50,CAKI-1,35.7 µM (inactive)
same,GI50,SK-OV-3,64.9 µM (inactive)
same,GI50,SK-MEL-2,39.4 µM (inactive)
same,GI50,HCT-116,27.4 µM (inactive)
same,GI50,MOLT-4,3.1 µM (inactive)
same,GI50,BT-549,15.6 µM (inactive)
same,GI50,SF-295,29.7 µM (inactive)
same,GI50,NCI-H226,> 69.8 µM (inactive)
same,GI50,M14,> 100 µM (inactive)
same,GI50,MCF7,3.56 µM (inactive)
same,GI50,CCRF-CEM,2.42 µM (inactive)
same,GI50,HOP-92,> 69.2 µM (inactive)
same,GI50,K562,3.7 µM (inactive)
same,GI50,SNB-75,28.6 µM (inactive)
same,GI50,RPMI-8226,3.23 µM (inactive)
same,GI50,OVCAR-4,> 54.2 µM (inactive)
same,GI50,DU-145,5.56 µM (inactive)
same,GI50,U-251,5.09 µM (inactive)
same,GI50,A498,8.67 µM (inactive)
same,GI50,SK-MEL-28,> 100 µM (inactive)
same,GI50,OVCAR-3,9.29 µM (inactive)
same,GI50,HL-60,3.89 µM (inactive)
same,GI50,NCI-H23,22 µM (inactive)
same,GI50,MDA-MB-435,17.5 µM (inactive)
same,GI50,SF-268,22.5 µM (inactive)
same,GI50,PC-3,> 100 µM (inactive)
